Measurements from PMC8297783, “Autocrine signaling by receptor tyrosine kinases in urothelial carcinoma of the bladder” (PLoS ONE, 2021).
Where “and” joins values, the source holds several entries; their conditions need not be identical. Identical values can stand only once. Like-named read-outs stand apart in the source and are kept apart here.

What was measured:
MERTK = molecular target: T1, MERTK (Homo sapiens, UniProt Q12866); experiment: phospho-MERTK immunoblot of J82 and MDXC1 lysates; format: cell-based; conditions: J82 and MDXC1 cells
T1 construct: endogenous in cells; host or cells: J82 and MDXC1 (J82 xenograft explant)
T1 sequence (Q12866 21-999): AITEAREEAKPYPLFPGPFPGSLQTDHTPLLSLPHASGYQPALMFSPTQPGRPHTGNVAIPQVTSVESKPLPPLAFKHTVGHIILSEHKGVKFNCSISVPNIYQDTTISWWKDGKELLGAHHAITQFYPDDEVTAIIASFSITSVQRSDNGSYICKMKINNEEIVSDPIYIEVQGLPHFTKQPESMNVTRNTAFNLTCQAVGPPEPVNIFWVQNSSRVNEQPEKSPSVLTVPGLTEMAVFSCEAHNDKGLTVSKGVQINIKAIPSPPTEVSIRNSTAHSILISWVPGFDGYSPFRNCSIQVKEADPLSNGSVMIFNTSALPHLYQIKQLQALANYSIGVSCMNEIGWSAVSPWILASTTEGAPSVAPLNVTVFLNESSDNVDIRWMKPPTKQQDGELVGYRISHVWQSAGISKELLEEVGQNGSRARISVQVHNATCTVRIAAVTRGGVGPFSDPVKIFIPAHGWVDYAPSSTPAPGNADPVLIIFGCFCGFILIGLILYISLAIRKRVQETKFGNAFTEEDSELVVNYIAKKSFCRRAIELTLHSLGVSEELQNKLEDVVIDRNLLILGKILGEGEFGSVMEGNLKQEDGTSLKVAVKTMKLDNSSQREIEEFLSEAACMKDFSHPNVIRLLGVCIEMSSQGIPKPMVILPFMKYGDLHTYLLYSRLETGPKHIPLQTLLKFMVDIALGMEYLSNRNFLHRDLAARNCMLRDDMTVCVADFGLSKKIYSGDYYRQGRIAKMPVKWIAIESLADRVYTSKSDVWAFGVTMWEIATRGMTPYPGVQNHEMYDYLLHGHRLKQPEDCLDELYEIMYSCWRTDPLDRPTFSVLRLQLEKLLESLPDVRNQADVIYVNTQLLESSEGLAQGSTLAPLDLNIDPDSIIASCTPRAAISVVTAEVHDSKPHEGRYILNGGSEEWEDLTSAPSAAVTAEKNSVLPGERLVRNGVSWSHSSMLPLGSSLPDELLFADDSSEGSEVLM
Description: For SDS-PAGE and immunoblot analysis, cultured cells were washed with cold PBS, extracted in Laemmli sample buffer, sonicated in ice-cold water with 3 cycles of 15 sec sonication followed by 1 min of cooling time. Samples were then heated for 5 min at 95°C prior to SDS-PAGE and electrophoretic transfer to nitrocellulose or PVDF membrane. Membranes were processed as described previously: membranes were blocked with 5% milk in Tris buffered saline, 0.1% Tween 20 (TBST) for 1 h at 25°C before incubating with primary antibody (1:1000 dilution) in TBST-5% milk for 16 h at 4°C. Membranes were then washed 3 times with TBST, incubated with horse radish peroxidase-labeled secondary antibody (1:10,000 dilution) for 1 h at 25°C, and washed for 3 h with TBS prior to ECL detection (Pierce/Thermo Fisher Scientific) according to the manufacturer’s supplied protocol. Imaging and quantitation of ECL light emission was performed using an Azure Biosystems c600 imaging system (Dublin, California USA).
Fig 8 Serial passage of J82 cell xenografts in mice. (A) Tumor volume (mm^3) of individual J82 (left) or MDXC1 (middle) cell xenografts in mice, or mean (+/- SD) tumor growth of both cell line xenografts (right), vs. days post implantation.

ROS = ROS (Homo sapiens, UniProt P08922); experiment: cell-free kinase inhibition assay, cabozantinib dose-dependence; format: biochemical; conditions: minimum of 3 x 10-dose curves
IGF1R = IGF1R (Homo sapiens, UniProt P08069); experiment: as above; format: biochemical
TYRO3 = TYRO3 (Homo sapiens, UniProt Q06418); experiment: as above; format: biochemical; conditions: minimum of 3 x 10-dose curves
FGFR1 = FGFR1 (Homo sapiens, UniProt P11362); experiment: as above; format: biochemical
FGFR2 = FGFR2 (Homo sapiens, UniProt P21802); experiment: as above; format: biochemical; conditions: minimum of 3 x 10-dose curves
FGFR3 = FGFR3 (Homo sapiens, UniProt P22607); experiment: as above; format: biochemical
FGFR4 = FGFR4 (Homo sapiens, UniProt P22455); experiment: as above; format: biochemical
FLT4 = FLT4 (Homo sapiens, UniProt P35916); experiment: as above; format: biochemical; conditions: minimum of 3 x 10-dose curves
CSF1R [1] = molecular target: T2, CSF1R (Homo sapiens, UniProt P07333); experiment: as above; format: biochemical; conditions: minimum of 3 x 10-dose curves
PDGFRA = PDGFRA (Homo sapiens, UniProt P16234); experiment: as above; format: biochemical; conditions: minimum of 3 x 10-dose curves
DDR1 = DDR1 (Homo sapiens, UniProt Q08345); experiment: as above; format: biochemical; conditions: minimum of 3 x 10-dose curves
DDR2 = DDR2 (Homo sapiens, UniProt Q16832); experiment: as above; format: biochemical; conditions: minimum of 3 x 10-dose curves
NTRK2 = NTRK2 (Homo sapiens, UniProt Q16620); experiment: as above; format: biochemical
NTRK3 = NTRK3 (Homo sapiens, UniProt Q16288); experiment: as above; format: biochemical; conditions: minimum of 3 x 10-dose curves
NTRK1 = NTRK1 (Homo sapiens, UniProt P04629); experiment: as above; format: biochemical; conditions: minimum of 3 x 10-dose curves
MUSK = MUSK (Homo sapiens, UniProt O15146); experiment: as above; format: biochemical
Axl = molecular target: T3, Axl (Homo sapiens, UniProt P30530); experiment: Axl kinase activation (pAxl/tAxl) by 2-site immunoassay in J82 cells; format: cell-based; conditions: serum-deprived J82 cells, Gas6 5.7 nM 1 h at 37°C, added cabozantinib 300 nM, relative to untreated cells
T3 construct: endogenous in cells; host or cells: J82 (ATCC HTB-1)

Akt [2] = experiment: Akt kinase activation (pAkt/tAkt) by 2-site immunoassay in J82 cells; format: cell-based, Human; conditions: serum-deprived J82 cells
Erk [3] = experiment: Erk kinase activation (pErk/tErk) by 2-site immunoassay in J82 cells; format: cell-based, Human; conditions: serum-deprived J82 cells
Akt [4] = experiment: Akt kinase activation (pAkt/tAkt) in FL3 cells, MST1R and CSF1R pathways; format: cell-based, Human; conditions: serum-deprived FL3 cells, MST1 (5 nM) or CSF1 (10 nM), cabozantinib 300 nM
Erk [5] = experiment: Erk kinase activation (pErk/tErk) in FL3 cells, MST1R and CSF1R pathways; format: cell-based, Human; conditions: MST1 or CSF1, cabozantinib
5637 cells = experiment: cell proliferation assay, 5637 cells; format: cell-based, Human; conditions: 1% FBS, 6 d
J82 cells [6] = experiment: cell proliferation assay, J82 cells; format: cell-based, Human; conditions: 1% FBS, 6 d
FL3 cells [7] = experiment: cell proliferation assay, FL3 cells; format: cell-based, Human; conditions: 1% FBS, 6 d
TEK = conditions: in vitro; read-out: IC50, TEK inhibition in vitro; cited from earlier work
CSF1R [8] = molecular target: T2, CSF1R; set-up: method as in PMID 30075184; conditions: intact cells; cited from earlier work
advanced BCa = conditions: clinical trial of cabozantinib in advanced BCa patients; cited from earlier work
J82 cells [9] = experiment: Transwell cell migration assay, J82 cells; conditions: serum deprived J82 cells, 16 h, 37°C, Gas6 5.7 nM, cabozantinib 300 nM
FL3 cells [10] = experiment: Transwell cell migration assay, FL3 cells; conditions: serum deprived FL3 cells, 16 h, 37°C, cabozantinib 300 nM
J82 cells [11] = experiment: anchorage independent growth assay, J82 cells; conditions: 1% FBS, cabozantinib 300 nM, with or without Gas6 5.7 nM
FL3 cells [12] = experiment: anchorage independent growth assay, FL3 cells; conditions: 1% FBS, cabozantinib 300 nM, with or without MST1 5 nM or CSF1 10 nM
ALK = ALK (Homo sapiens, UniProt Q9UM73); experiment: cell-free kinase inhibition assay, cabozantinib dose-dependence
[13] = Gas6 5.7 nM 1 h, cabozantinib 300 nM
[14] = cabozantinib 300 nM, in the presence or absence of added Gas6 (5.7 nM)
[15] = exogenous Gas6 5.7 nM, 1 h at 37°C

Chain of FLT4 (P35916 25-1363): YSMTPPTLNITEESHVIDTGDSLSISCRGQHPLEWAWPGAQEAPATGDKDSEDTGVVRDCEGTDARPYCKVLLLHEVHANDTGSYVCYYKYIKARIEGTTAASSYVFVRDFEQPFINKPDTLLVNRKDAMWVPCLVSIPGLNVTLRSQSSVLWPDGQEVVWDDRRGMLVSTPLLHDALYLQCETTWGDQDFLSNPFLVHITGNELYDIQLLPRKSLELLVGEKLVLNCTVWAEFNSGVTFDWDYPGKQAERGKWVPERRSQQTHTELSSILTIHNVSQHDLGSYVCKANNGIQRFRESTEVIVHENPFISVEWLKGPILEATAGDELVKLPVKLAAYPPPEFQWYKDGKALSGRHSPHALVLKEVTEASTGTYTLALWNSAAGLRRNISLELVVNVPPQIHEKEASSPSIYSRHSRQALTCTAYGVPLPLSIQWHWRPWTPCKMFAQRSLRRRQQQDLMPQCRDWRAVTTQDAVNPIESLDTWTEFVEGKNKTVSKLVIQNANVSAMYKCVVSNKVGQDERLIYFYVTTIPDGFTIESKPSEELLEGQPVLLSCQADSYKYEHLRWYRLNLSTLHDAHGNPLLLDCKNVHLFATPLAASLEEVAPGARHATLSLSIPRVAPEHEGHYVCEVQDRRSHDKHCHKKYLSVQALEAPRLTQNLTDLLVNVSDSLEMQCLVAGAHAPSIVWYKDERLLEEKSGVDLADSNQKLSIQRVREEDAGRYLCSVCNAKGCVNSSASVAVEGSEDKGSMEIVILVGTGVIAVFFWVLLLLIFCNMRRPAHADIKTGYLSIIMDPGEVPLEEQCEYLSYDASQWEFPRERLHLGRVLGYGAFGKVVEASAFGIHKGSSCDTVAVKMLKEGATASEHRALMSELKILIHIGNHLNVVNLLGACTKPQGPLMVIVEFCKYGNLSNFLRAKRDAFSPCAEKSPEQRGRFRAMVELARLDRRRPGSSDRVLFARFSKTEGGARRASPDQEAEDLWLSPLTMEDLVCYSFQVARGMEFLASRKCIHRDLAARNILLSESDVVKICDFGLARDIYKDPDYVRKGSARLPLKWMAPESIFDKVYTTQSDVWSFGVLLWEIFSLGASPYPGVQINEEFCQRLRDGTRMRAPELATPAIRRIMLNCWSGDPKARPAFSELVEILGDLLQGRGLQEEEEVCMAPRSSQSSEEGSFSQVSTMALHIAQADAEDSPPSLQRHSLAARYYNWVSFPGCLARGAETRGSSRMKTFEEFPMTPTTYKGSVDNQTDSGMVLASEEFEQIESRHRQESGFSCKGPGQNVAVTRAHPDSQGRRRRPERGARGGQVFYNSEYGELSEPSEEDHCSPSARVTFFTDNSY
Chain of NTRK2 (Q16620 32-822): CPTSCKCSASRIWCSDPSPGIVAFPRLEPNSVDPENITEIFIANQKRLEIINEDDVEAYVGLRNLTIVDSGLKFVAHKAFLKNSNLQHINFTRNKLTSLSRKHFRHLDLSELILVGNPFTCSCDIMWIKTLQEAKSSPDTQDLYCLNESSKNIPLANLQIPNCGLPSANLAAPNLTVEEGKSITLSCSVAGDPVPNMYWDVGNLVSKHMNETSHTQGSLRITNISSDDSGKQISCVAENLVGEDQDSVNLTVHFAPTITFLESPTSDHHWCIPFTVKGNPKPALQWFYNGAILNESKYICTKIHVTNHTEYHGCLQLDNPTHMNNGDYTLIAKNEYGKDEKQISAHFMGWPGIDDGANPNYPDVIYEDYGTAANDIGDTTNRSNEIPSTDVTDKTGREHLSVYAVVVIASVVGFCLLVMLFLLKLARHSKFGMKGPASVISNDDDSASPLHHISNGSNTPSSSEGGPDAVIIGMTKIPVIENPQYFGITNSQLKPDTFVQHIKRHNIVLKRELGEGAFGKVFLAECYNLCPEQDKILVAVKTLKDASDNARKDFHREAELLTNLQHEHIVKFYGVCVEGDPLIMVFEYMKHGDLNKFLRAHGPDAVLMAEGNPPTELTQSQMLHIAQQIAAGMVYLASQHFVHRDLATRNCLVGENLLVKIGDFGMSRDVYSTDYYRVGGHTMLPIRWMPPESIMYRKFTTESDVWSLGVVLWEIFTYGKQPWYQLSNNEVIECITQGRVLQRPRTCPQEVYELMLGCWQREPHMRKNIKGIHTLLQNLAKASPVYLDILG
T2 sequence (P07333 20-972): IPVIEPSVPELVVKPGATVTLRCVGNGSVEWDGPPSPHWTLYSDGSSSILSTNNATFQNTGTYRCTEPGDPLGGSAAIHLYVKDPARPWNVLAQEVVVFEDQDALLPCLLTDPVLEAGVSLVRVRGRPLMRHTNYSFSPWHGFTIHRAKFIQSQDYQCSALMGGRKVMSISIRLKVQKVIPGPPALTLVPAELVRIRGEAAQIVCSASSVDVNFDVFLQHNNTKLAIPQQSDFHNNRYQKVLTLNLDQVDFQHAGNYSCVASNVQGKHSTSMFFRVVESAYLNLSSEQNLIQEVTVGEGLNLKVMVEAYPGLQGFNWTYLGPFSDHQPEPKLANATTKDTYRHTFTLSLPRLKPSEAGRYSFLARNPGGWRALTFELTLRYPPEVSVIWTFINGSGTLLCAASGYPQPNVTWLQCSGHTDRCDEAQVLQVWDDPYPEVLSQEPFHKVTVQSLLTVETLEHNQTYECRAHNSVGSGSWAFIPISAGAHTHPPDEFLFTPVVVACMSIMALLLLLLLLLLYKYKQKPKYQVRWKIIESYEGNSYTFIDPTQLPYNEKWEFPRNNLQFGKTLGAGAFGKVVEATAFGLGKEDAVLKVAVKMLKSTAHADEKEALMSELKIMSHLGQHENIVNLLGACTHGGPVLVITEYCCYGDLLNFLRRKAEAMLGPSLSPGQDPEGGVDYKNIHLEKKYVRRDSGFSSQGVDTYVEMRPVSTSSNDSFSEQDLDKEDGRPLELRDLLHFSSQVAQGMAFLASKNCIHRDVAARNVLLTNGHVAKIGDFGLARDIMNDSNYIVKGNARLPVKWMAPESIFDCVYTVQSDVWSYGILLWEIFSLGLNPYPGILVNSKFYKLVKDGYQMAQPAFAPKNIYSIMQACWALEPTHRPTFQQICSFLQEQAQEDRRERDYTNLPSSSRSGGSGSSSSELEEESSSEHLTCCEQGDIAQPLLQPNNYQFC
Chain of TYRO3 (Q06418 41-890): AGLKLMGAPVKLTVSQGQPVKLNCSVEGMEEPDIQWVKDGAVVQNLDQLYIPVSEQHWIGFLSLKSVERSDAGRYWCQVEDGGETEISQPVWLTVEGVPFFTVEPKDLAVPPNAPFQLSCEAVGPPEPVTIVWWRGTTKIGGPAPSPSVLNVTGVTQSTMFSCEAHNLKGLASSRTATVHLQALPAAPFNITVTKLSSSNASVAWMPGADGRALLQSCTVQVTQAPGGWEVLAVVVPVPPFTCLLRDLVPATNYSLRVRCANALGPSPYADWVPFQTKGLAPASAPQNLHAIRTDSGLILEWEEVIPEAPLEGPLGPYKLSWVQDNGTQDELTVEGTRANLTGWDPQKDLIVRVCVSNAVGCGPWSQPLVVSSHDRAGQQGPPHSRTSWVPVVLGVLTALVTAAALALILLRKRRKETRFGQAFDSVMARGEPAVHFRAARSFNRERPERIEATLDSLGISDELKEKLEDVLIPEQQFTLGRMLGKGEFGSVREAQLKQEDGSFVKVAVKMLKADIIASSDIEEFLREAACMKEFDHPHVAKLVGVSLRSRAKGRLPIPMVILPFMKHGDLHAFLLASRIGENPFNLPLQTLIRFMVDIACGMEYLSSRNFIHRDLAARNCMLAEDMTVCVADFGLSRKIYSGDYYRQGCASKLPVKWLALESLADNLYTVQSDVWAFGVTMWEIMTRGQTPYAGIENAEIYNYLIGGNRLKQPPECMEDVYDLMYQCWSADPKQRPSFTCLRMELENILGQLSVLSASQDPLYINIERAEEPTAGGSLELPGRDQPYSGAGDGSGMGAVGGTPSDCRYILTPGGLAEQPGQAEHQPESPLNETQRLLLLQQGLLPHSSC
Chain of DDR2 (Q16832 22-855): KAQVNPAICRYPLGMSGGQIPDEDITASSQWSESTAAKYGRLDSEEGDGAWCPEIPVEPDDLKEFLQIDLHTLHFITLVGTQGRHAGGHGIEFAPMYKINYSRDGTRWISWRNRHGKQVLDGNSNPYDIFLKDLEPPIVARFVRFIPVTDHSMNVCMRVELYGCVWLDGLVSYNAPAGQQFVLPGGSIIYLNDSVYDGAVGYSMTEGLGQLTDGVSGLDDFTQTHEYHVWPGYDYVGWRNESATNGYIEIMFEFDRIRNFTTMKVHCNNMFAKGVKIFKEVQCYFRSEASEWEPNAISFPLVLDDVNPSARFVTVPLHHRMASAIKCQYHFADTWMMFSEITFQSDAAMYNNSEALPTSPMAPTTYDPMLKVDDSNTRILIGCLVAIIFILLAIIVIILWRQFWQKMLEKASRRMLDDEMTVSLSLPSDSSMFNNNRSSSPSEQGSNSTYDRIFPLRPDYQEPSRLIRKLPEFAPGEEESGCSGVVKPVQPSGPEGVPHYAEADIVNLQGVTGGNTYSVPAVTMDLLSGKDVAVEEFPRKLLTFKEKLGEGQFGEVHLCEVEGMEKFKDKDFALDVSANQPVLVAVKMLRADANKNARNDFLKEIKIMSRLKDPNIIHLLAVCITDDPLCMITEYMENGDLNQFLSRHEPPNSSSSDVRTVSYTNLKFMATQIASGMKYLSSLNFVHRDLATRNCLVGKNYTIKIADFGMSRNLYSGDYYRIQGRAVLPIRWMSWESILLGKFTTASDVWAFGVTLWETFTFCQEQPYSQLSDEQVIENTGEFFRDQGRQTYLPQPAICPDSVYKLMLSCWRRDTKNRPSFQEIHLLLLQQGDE

**Q.** For `CN1CCN(Cc2ccc(Nc3ncc(Cl)c(Nc4ccccc4S(=O)(=O)N(C)C)n3)cc2)CC1` [TP0903], which phospho-MERTK content (MERTK; TP0903 300 nM) is on record?
**A.** reduced phospho-MERTK content below that of untreated serum-deprived cells

**Q.** For `COc1cc2nccc(Oc3ccc(NC(=O)C4(C(=O)Nc5ccc(F)cc5)CC4)cc3)c2cc1OC` [cabozantinib], which IC50 (ROS) is on record?
**A.** 43 nM and < 50 nM

**Q.** What about the IC50 (IGF1R) of the same molecule?
**A.** > 3 µM

**Q.** What about the IC50 (TYRO3) of the same molecule?
**A.** < 50 nM and 3 nM

**Q.** What about the IC50 (FGFR1) of the same molecule?
**A.** > 3 µM

**Q.** And the IC50 (FGFR2)?
**A.** > 3 µM

**Q.** What about the IC50 (FGFR3) of the same molecule?
**A.** > 3 µM

**Q.** And the IC50 (FGFR4)?
**A.** > 3 µM

**Q.** And the IC50 (FLT4)?
**A.** 24 nM and < 50 nM

**Q.** And the IC50 (CSF1R [1])?
**A.** 14 nM

**Q.** And the IC50 (PDGFRA)?
**A.** 414 nM

**Q.** What about the IC50 (DDR1) of the same molecule?
**A.** < 150 nM

**Q.** And the IC50 (DDR2)?
**A.** < 150 nM

**Q.** What about the IC50 (NTRK2) of the same molecule?
**A.** < 50 nM

**Q.** And the IC50 (NTRK2; IC50 (NTRK2), cell-free assay, minimum of 3 x 10-dose curves)?
**A.** 15 nM

**Q.** And the IC50 (NTRK3)?
**A.** < 150 nM

**Q.** What about the IC50 (NTRK1) of the same molecule?
**A.** 11 nM

**Q.** What about the IC50 (MUSK) of the same molecule?
**A.** > 3 µM

**Q.** What about the “Axl kinase activation (pAxl/tAxl)” value (Axl) of the same molecule?
**A.** suppressed significantly below control levels

**Q.** What about the “Akt kinase activation (pAkt/tAkt)” value (Akt [2]; [13]) of the same molecule?
**A.** suppression below baseline

**Q.** And the “Erk kinase activation (pErk/tErk)” value (Erk [3]; [13])?
**A.** suppression below baseline

**Q.** And the “Akt kinase activation (pAkt/tAkt)” value (Akt [4])?
**A.** suppressed significantly below baseline

**Q.** What about the “Erk kinase activation (pErk/tErk)” value (Erk [5]) of the same molecule?
**A.** suppressed significantly below baseline

**Q.** What about the proliferation (5637 cells; [14]) of the same molecule?
**A.** significantly inhibited proliferation by these lines below the rate of untreated cells

**Q.** And the proliferation (J82 cells [6]; [14])?
**A.** significantly inhibited proliferation by these lines below the rate of untreated cells

**Q.** What about the proliferation (FL3 cells [7]; both cabozantinib 300 nM and MST1 5 nM) of the same molecule?
**A.** reduced FL3 proliferation to the control cell growth rate, but not below

**Q.** And the proliferation rate (FL3 cells [7]; cabozantinib alone 300 nM, relative to untreated cells)?
**A.** significantly reduced proliferation rate

**Q.** And the IC50 (TEK)?
**A.** 14 nM

**Q.** What about the “inhibition of CSF1R activation” value (CSF1R [8]) of the same molecule?
**A.** complete inhibition

**Q.** And the overall response rate (advanced BCa)?
**A.** 33%

**Q.** And the Gas6-induced migration (J82 cells [9])?
**A.** repressed

**Q.** And the CSF1-induced migration (FL3 cells [10]; CSF1 10 nM)?
**A.** repressed

**Q.** And the MST1-induced migration (FL3 cells [10]; MST1 5 nM)?
**A.** repressed

**Q.** And the anchorage independent growth (J82 cells [11])?
**A.** inhibited

**Q.** What about the anchorage independent growth (FL3 cells [12]) of the same molecule?
**A.** inhibited

**Q.** What about the IC50 (ALK) of the same molecule?
**A.** > 3 µM

**Q.** Which “Akt kinase activation (pAkt/tAkt)” value (Akt [2]; [15]) does the source give for “Gas6: exogenous ligand of AXL (also activates MERTK), added to cells at 5.7 nM” here?
**A.** significant exogenous Gas6-induced activation

**Q.** And the “Erk kinase activation (pErk/tErk)” value (Erk [3]; [15])?
**A.** significant exogenous Gas6-induced activation

**Q.** What about the proliferation rate (5637 cells; exogenously added Gas6 5.7 nM) of the same molecule?
**A.** significantly increased

**Q.** What about the proliferation rate (J82 cells [6]; exogenously added Gas6 5.7 nM) of the same molecule?
**A.** significantly increased

**Q.** What about the MERTK autophosphorylation (MERTK; exogenous Gas6 5.7 nM) of the same molecule?
**A.** stimulated robust MERTK autophosphorylation
